What all share (type): cell-based, human
The test system of experiment [1] is MDA cells. Nature of the experiment: MDA cells incubated with agent alone (live cell counting, MTT, Annexin V/7AAD). How it is done: (§1) hMSCs were plated at 10^5 cells in CCM in 6-well plates and incubated for 4 hrs. For pre-activation, hMSCs were incubated at 37° C. for 24 hrs in 2% CM containing 10 ng/mL TNF-α. For co-culture, an equal number of MDA cells in 2% CM with or without TNF-α (10 ng/mL) were added to hMSC containing wells. For transwell cultures, hMSCs were plated at 10^5 cells in the upper compartment (Transwell, 0.4 μm pore size; Corning; Corning, N.Y.), while an equal number of MDA cells was plated in the lower compartment in 2% CM with or without TNF-α (10 ng/mL). After 24 hrs, supernatants and cells were collected. For some experiments, MDA cells were treated with 1 to 100 ng/mL doxorubicin (Sigma-Aldrich) in 2% CM for 24 his at 37° C., prior to co-culture with hMSCs. In other experiments, hMSCs were treated with either apoptotic MDA cells or 1 μg/mL Polyinosinic-Polycytidylic acid [Poly(I:C); Sigma-Aldrich; St. Louis, Mo.] with or without TNF-α (10 ng/ml) for 24 hrs in 2% CM.
(§2) hMSCs and MDA cells from co-culture experiments were suspended in PBS and incubated with CD90-PE (Clone Thy1/310; Beckman Coulter) for 45 minutes on ice, washed with PBS by centrifugation, incubated at RT for 20 minutes with 300 ng/mL annexin V (AnnexinV-FITC Apoptosis Detection Kit; Sigma-Aldrich) and 4 μg/mL 7-aminoactinomycin D (7AAD; Sigma-Aldrich.), and analyzed by flow cytometry (Cytomics FC500; Beckman Coulter).

The subject of the next experiment is TRAIL. Description: TRAIL expression in hMSCs (real-time RT-PCR, Western, ELISA, IF). How it is done:
(§3) Approximately 200 ng of total RNA extracted from cultured cells was used to synthesize double-stranded complementary DNA (cDNA) by reverse transcription (SuperScript III; Invitrogen). cDNA was analyzed by real-time PCR using TaqMan Universal PCR Master Mix (Applied Biosystems). For the assays, reactions were incubated at 50° C. for 2 minutes and at 95° C. for 10 minutes followed by 40 cycles at 95° C. for 15 seconds and 60° C. for 1 minute. For relative quantitation of gene expression, human-specific GAPDH primers and probe (Taq-Man Gene Expression Assays ID, Hs00266705_g1) were used. The other PCR primers and probes were human DKK3 (Hs00247426_m1), human TRAIL (TNFSF10: Hs00921974_m1) and human TLR3 (Hs01551078_m1) all purchased from the same source (Applied Biosystems).
(§4) Cultured cells were sorted using FACS after CD90-PE staining. Sorted samples were lysed (Cell Extraction Buffer; Invitrogen) and sonicated for 15-20 seconds (Ultrasonic Processor, 130W; Cole-Parmer; Vernon Hills, Ill.). […] The samples were heated at 97° C. for 5 minutes. Denatured protein samples were separated by electrophoresis on polyacrylamide gels (NuPAGE® Bis-Tris Gels; Invitrogen) and proteins transferred to Invitrolon™ PVDF membrane (Pore size—0.45 μm; Invitrogen) using Novex® NuPAGE® SDS-PAGE Gel System (Invitrogen). Membranes were then blocked for 1 hour at room temperature (RT) using blocking buffer that contained 5% non-fat dry milk (Cell Signaling Technologies, Inc.) in Tris-buffered saline with 0.1% Tween-20 (TBST). After blocking, membranes were incubated overnight at 4° C. with primary antibodies that were diluted in 5% BSA in TBST. The membranes were washed with TBST three times for 5 minutes each, and incubated with secondary antibodies, which were diluted in blocking buffer, for 1 hour at RT. After secondary antibody incubation, the membranes were washed with TBST three times and developed using West-Q Chemiluminescent Substrate Kit (Gendepot, Inc.; Barker, Tex.) for 1 minute. Images were taken using Molecular Imager VersaDoc™ MP 4000 (Bio-rad Laboratories). The membranes were washed with TBST three times and stripped using Restore™ Western Blot Stripping buffer (Thermo Fisher Scientific, Inc.) for 15 minutes at 37° C., followed by three more washes with TBST. The membranes were blocked for 1 hour using blocking buffer and incubated with β-actin primary antibody conjugated with HRP (1:10,000) diluted in blocking buffer followed by imaging as described above. […]
Conditioned media from cultured MDA and hMSCs were collected after 24 hour incubation. For the DKK-3 assay, culture media were filtered (Spin-X® Centrifuge Tube Filter, 0.22 μm; Corning, Inc) and the protein level was detected by ELISA (Human Dkk-3 DuoSet; R&D Systems). […]
(Real-time PCR tracks product formation cycle by cycle.)

The test system of experiment [2] is MDA cells. Description: Co-culture of hMSCs and MDA cells (Annexin V/7AAD apoptosis, live cell counting). The procedure: as §1, §2
hMSCs (5×10^4 cells/well in 6 well plate) were treated with either TLR3 antibody (5 μg/mL; eBioscience, Inc; San Diego, Calif.), TRAIL antibody (25 μg/mL; BD Biosciences, Inc; San Jose, Calif.), or normal mouse IgG (5 or 25 μg/mL; PeproTech, Inc; Rocky Hill, N.J.) for 30 minutes at 37° C. in 2% CM with or without TNF-α (10 ng/mL) prior to co-culture with an equal number of MDA cells for 24 hrs.

For another experiment, the system named is DKK3. Nature of the experiment: DKK3 expression in hMSCs (ELISA). The following applies: 10 ng/mL TNF-α. How it is done:
Conditioned media from cultured MDA and hMSCs were collected after 24 hour incubation. For the DKK-3 assay, culture media were filtered (Spin-X® Centrifuge Tube Filter, 0.22 μm; Corning, Inc) and the protein level was detected by ELISA (Human Dkk-3 DuoSet; R&D Systems). For detection of TRAIL, the filtered medium was concentrated to 4 times (Vivaspin 6 (5 kDa MWCO; GE Healthcare; UK) and assayed by ELISA (Human TRAIL Quantikine ELISA kit; R&D Systems).
(In an ELISA, binding on a coated surface is turned into a signal by an enzyme label.)

The next experiment deals with TLR3. Description: TLR3 expression in hMSCs (real-time RT-PCR). The following applies: incubation with TNF-α. How it is done: as §3
hMSCs and MDA cell were separated by cell sorting (FACS, MoFlo™ XDP; Beckman Coulter; Brea, Calif.) after labeling with CD90-PE for 45 minutes on ice. RNA was extracted using RNeasy Mini Kit (QIAGEN). See Supplemental Information for real time RT-PCR analysis.

Experiment [3] has as its system cyclin D1, cyclin D3 and p21. Nature of the experiment: Cyclin D1, cyclin D3 and p21 in MDA cells (Western blot, IF staining). The following applies: TNF-α alone. How it is done:
as §4, with “Laboratories).” for “Laboratories). The membranes were washed with TBST three times and stripped using Restore™ Western Blot Stripping buffer (Thermo Fisher Scientific, Inc.) for 15 minutes at 37° C., followed by three more washes with TBST. The membranes were blocked for 1 hour using blocking buffer and incubated with β-actin primary antibody conjugated with HRP (1:10,000) diluted in blocking buffer followed by imaging as described above.”
For orientation: In western blotting, separated proteins are transferred to a membrane and probed.

A further experiment concerns β-catenin. Nature of the experiment: β-catenin in MDA cells (IF staining). To be noted: 24 hr incubation with rhDKK3. How it is done:
For immunofluorescence staining, hMSCs were cultured in CCM overnight in 150 mm diameter plates and replated at 10,000 cells/cm^2 in chambered slides (Lab Tek II Chamber Slide™ System; Nunc Thermo Scientific, Rochester, N.Y.). […] After co-culture, the cells were washed with PBS twice and fixed with either methanol for anti-TRAIL antibody or 4% PFA for all other antibodies. The slides were further processed for immuno-staining as described above. The antibodies used for immunochemistry were anti-human nuclei mouse monoclonal antibody (Millipore, Billerica, Mass.) anti-GFP-Alexa Fluor® rat monoclonal antibody (RQ2; MBL Co. Ltd, Woburn, Mass.), anti-human TRAIL rabbit polyclonal antibodies (C92B9; Cell Signaling) anti-human cyclin D1 mouse monoclonal antibody (DCS6; Cell Signaling), anti-human p21 mouse monoclonal antibody (DCS60; Cell Signaling) and anti-human β-catenin mouse monoclonal antibodies (BD Bioscience, Sparks, Md.). Alexa Fluor® antibodies (Invitrogen) were used for secondary antibodies.

The next experiment has as its system U87. Nature of the experiment: Live cell number / cell death of U87 cells. To be noted: 100 ng/ml rhTRAIL, 24 hour; compared with MDA cells.

As to `COc1cccc2c1C(=O)c1c(O)c3c(c(O)c1C2=O)C[C@@](O)(C(=O)CO)C[C@@H]3O[C@H]1C[C@H](N)[C@H](O)[C@H](C)O1` [doxorubicin], in the experiment with MDA cells [1] (100 ng/mL (0.2 μM)), the “apoptosis of MDA cells” value was “did not induce apoptosis”. Further, the “proliferation of MDA (recovery of live cells)” value in the experiment with MDA cells [1] (100 ng/mL (0.2 μM), 24 hrs) is reported as “suppressed proliferation of MDA”. Moreover, in the experiment with MDA cells [1] (after 24 hrs, 1 to 100 ng/mL, dose dependent), the “number of live MDA cells recovered from cultures” value was “decreased the number of live MDA cells”.

With DNase, the “increase of TRAIL in hMSCs by apoptotic MDA cells pre-treated with enzyme” value with TRAIL (24 hr incubation) was “inhibited the increase of TRAIL in hMSCs”.

As for IFN-γ: pro-inflammatory agent, in the experiment on TRAIL (24 hour incubation of hMSCs with the agent, real time RT-PCR), the “up-regulation of TRAIL in hMSCs” value is given as 30 fold.

With “Polyinosinic-Polycytidylic acid [poly(I:C)]”, in the experiment on MDA cells [2] (poly(I:C)/TNF-α pre-activated hMSCs, 24 hr), the “MDA apoptosis when agent added to co-cultures” value was “small but statistically significant increase in MDA apoptosis”. The “expression of TRAIL in hMSCs” value with TRAIL (1 μg/mL Poly(I:C), 24 hrs) is listed as “increased expression of TRAIL in hMSCs”.

On to TNF-α, for which the “concentration adequate to activate hMSCs to induce MDA apoptosis” value in the experiment with MDA cells [2] (co-culture) was 0.1 ng/mL. The “activation of hMSCs to induce apoptosis of MDA cells in co-culture” value in the experiment with MDA cells [2] (over the range of 0.1 to 10 ng/mL) is reported as “concentration dependent”. Moreover, the “expression of DKK3 protein in hMSCs” value in the experiment with DKK3 is “up-regulated”. Also, in the experiment with TRAIL (10 ng/mL TNF-α), the “expression of TRAIL protein in hMSCs” value is “up-regulated”. The “expression of TLR3 in hMSCs” value in the experiment on TLR3 was “increased by incubation with TNF-α”. For the same molecule, the “expression of cyclin D1, D3 and p21 in MDA cells” value in experiment [3] is reported as “had no significant effect”.

On to “rhDKK-3: recombinant human DKK3 (R&D Systems)”, for which the “proliferation of MDA cells (MTT, live cell number)” value with MDA cells [1] (24 hr incubation with rhDKK3) is “decreased”. For the same molecule, the “viability of MDA cells (Annexin V & 7AAD)” value with MDA cells [1] (rhDKK3 5 ng/mL, 24 hr) is “without affecting the viability of MDA cells”. The “number of β-catenin expressing MDA” value with β-catenin is “decreased the number of β-catenin expressing MDA”.

B1: rhTRAIL: recombinant human TRAIL (R&D Systems) (protein, UniProt P50591 39-281, looked up)
extracellular domain: TNELKQMQDKYSKSGIACFLKEDDSYWDPNDEESMNSPCWQVKWQLRQLVRKMILRTSEETISTVQEKQQNISPLVRERGPQRVAAHITGTRGRSNTLSSPNSKNEKALGRKINSWESSRSGHSFLSNLHLRNGELVIHEKGFYYIYSQTYFRFQEEIKENTKNDKQMVQYIYKYTSYPDPILLMKSARNSCWSKDAEYGLYSIYQGGIFELKENDRIFVSVTNEHLIDMDHEASFFGAFLVG
modifications: extracellular domain
On to B1, for which the “sensitivity of U87 cells (cell death)” value in the experiment with U87 is recorded as “less sensitive to rhTRAIL than MDA cells”.

The record behind these values is patent publication US20150272992A1, “Treatment of Tumors with Activated Mesenchymal Stem Cells” (THE TEXAS A&M UNIVERSITY SYSTEM, priority 2012, published 2015).
